In patent US12433867B2, “Pharmaceutical composition comprising FLT3 inhibitor and hypomethylating agent for treating acute myeloid leukemia” (HANMI PHARM. CO., LTD, priority 2019, dated 2025):

Legend:
MOLM-13-Luc2 cell line = test: Mouse model xenografted with MOLM-13-Luc2 cell line, survival; format: in vivo; conditions: NOG mouse, MOLM-13-Luc2 i.v.; Compound A 10 mg/kg/day oral once a day; azacitidine 3 mg/kg/day i.p. twice a week
Protocol: A comparison of Compound A and azacitidine or an efficacy test of combination thereof was conducted in a mouse model xenografted with a MOLM-13-Luc2 cell line which is a MOLM-13 cell line genetically modified to express luciferase.
The MOLM-13-Luc2 cell line was injected to a tail vein of NOG mouse at 5×10^6 cells/0.1 mL/mouse, and allowed to grow.
Bioluminescence images of MOLM-13-Luc2 cells were measured using a Lumina III IVIS imaging system (PerkinElmer) and quantified using a Living image software (PerkinElmer). When measured, D-luciferin (D-luciferin) was intraperitoneally injected to mice, and imaging was were performed under anesthesia using isoflurane. Images were measured for a first group separation during the experiment, and then measured on a specific day according to the purpose of the test.
A control group orally received a DMSO/PEG400/DW (ratio=0.5/2/7.5, v/v) mixed solution once a day, and a Compound A group was orally administered once a day at a dose of 10 mg/kg/day. An azacitidine group which is a hypomethylating agent (HMA) group was intraperitoneally administered at a dose of 3 mg/kg/day twice a week (on day 1 and day 4 of the week). A combination group was orally administered with Compound A at a dose of 10 mg/kg/day once a day, and azacitidine was intraperitoneally administered at a dose of 3 mg/kg/day twice a week (on day 1 and day 4 every week). Each group received individual drugs until all subjects in each group died.
The Y-axis represents a percentage (%) of surviving mice (survival rate) in each experimental group, and the X-axis represents the number of days of administration.

[1] = system: MOLM-13 (DSMZ no. ACC 554) cell line; test: MOLM-13 cell growth inhibition (CellTiter-Glo), Compound A alone or combined with azacitidine; format: cell-based
Protocol: By examining growth inhibition of an MOLM-13 (DSMZ no. ACC 554) cell line which was treated with, in combination, an FLT3 inhibitor, 5-chloro-N-(3-cyclopropyl-5-(((3R,5S)-3,5-dimethylpiperazin-1-yl)methyl)phenyl)-4-(6-methyl-1H-indol-3-yl)pyrimidin-2-amine (hereinafter, Compound A) and a hypomethylating agent (HMA), 4-amino-1-β-D-ribofuranosyl-1,3,5-triazin-2(1H)-one (hereinafter, azacitidine), an effect of combined treatment of the two drugs was tested. The MOLM-13 cell line cultured in an RPMI 1640 culture medium (RPMI=Rosewell Parker Memory Institute) supplemented with 20% FBS was inoculated at a density of 2×10^4 cells per well in a 96-well plate, and Compound A was subjected to ½ serial dilution at predetermined concentrations (e.g., 10 nM to 0.078 nM) using the same culture medium. […] To measure cell viability, a CellTiter-Glo® (CTG) assay was performed, and for result analysis, 50% cell growth inhibition (GI50) was calculated using a GraphPad Prism software.

[2] = system: Ba/F3 cells expressed in an FLT3 ITD/D835Y xenografted mouse model; test: In vivo study, Ba/F3 FLT3 ITD/D835Y xenografted mouse model
[3] = system: Ba/F3 cells expressed in an FLT3 ITD/F691L xenografted mouse model; test: In vivo study, Ba/F3 FLT3 ITD/F691L xenografted mouse model

Structure (SMILES)	median survival period (MOLM-13-Luc2 cell line) [days]	overall survival period (MOLM-13-Luc2 cell line) [days]	GI40 (concentration inhibiting MOLM-13 cell growth by about 40%) ([1]; MOLM-13 cells) [nM]	therapeutic effect / overcoming resistance caused by FLT3 mutations [2]	therapeutic effect / overcoming resistance caused by FLT3 mutations [3]	GI50 ([1]; Homo sapiens, 72 h, MOLM-13, incubation 3 days, CTG assay, combination with azacitidine at 800 nM, GI50 as Compound A concentration) [nM]
Nc1ncn([C@@H]2O[C@H](CO)[C@@H](O)[C@H]2O)c(=O)n1 [Azacitidine, 4-amino-1-β-D-ribofuranosyl-1,3,5-triazin-2(1H)-one, reference compound]	16	18	800			
Cc1ccc2c(-c3nc(Nc4cc(CN5C[C@@H](C)N[C@@H](C)C5)cc(C5CC5)c4)ncc3Cl)c[nH]c2c1 [Compound A, 5-chloro-N-(3-cyclopropyl-5-(((3R,5S)-3,5-dimethylpiperazin-1-yl)methyl)phenyl)-4-(6-methyl-1H-indol-3-yl)pyrimidin-2-amine]	17	20		shows therapeutic effects	shows therapeutic effects	2.5
